Tests used:
cells = conditions: cited from earlier work
PKC = conditions: cited from earlier work
Cdk4 = Cdk4 (Homo sapiens, UniProt P11802); conditions: cited from earlier work
Cdk2 = Cdk2 (Homo sapiens, UniProt P24941); conditions: cited from earlier work
Cdk1 = Cdk1 (Homo sapiens, UniProt P06493); conditions: cited from earlier work
human cyclin D1-CDK4 = human cyclin D1-CDK4 (Homo sapiens, UniProt P11802); assay: FlashPlate kinase assay, cyclin D1-CDK4; assay type: biochemical; conditions: Rb protein substrate, 1 μM ATP
human cyclin D1-CDK4, sequence (P11802 whole entry): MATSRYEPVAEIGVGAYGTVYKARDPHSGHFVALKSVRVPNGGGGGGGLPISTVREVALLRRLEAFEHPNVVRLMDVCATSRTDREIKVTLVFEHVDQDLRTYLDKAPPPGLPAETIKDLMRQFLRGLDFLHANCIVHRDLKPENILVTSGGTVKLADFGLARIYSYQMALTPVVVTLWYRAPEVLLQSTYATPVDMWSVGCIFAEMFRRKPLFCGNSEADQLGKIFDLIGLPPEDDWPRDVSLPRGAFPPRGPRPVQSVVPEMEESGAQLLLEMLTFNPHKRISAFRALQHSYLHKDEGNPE
human cyclin D1-CDK4, sequence (P24385 whole entry partner): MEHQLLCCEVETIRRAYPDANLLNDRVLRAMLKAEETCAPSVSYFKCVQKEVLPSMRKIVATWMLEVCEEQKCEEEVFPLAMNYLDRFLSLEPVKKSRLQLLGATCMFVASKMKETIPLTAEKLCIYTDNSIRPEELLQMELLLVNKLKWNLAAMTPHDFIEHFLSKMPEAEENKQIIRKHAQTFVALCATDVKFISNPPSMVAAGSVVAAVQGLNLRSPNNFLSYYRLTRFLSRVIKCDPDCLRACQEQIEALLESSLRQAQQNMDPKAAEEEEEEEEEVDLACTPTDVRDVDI
Procedure: (§1) To determine inhibition of Cdk4, Cdk2 and Cdk1 activity, kinase assays were conducted using FlashPlate™ assays (NEN™-Life Science Products). FlashPlate assays were performed using recombinant human cyclin B-CDK1, human cyclin E-CDK2 or human cyclin D1-CDK4 complexes. GST-cyclinE (GST-cycE), CDK2, GST-cyclinB (GST-cycB), CDK1, GST-CDK4 and cyclin D1 (cycD1) cDNA clones in baculovirus vectors were provided by Dr. W. Harper at the Baylor College of Medicine, Houston, Tex.
(§2) The expression of the 62Kd protein was under the control of an IPTG inducible promoter in an M15 E. coli strain. Cells were lysed by sonication and purification was carried out by binding lysates at pH 8.0 to a Ni-chelated agarose column pretreated with 1 mM imidazole. The resin was then washed several times with incrementally decreasing pH buffers to pH 6.0, and eluted with 500 mM imidazole. Eluted protein was dialysed against 20 mM HEPES pH 7.5, 30% glycerol, 200 mM NaCl, and 1 mM DTT. Purified Rb fusion protein stocks were quantitated for protein concentration, aliquoted, and stored at −70° C.
(§3) For all three kinase assays reported herein, 96-well FlashPlates were coated with Rb protein at 10 μg/ml, using 100 μl per well. Plates were incubated at 4° C. overnight or at room temperature for 3 hours on a shaker. To control for nonspecific phosphorylation, one row of wells was coated with 100 μl/well coating buffer (20 mM HEPES, 0.2 M NaCl). Plates were then washed twice with wash buffer (0.01% Tween 20 in phosphate-buffered saline). Compounds to be tested (“test compounds”) were added to the wells at 5×final concentration. Reactions were initiated by immediate addition of 40 μl reaction mix (25 mM HEPES, 20 mM MgCl2, 0.002% Tween 20, 2 mM DTT, 1 μM ATP, 4 nM ^33P-ATP) and a sufficient amount of enzyme to give counts that were at least 10-fold above background. Plates were incubated at room temperature on a shaker for 30 minutes. Plates were washed four times with the wash buffer, sealed, and counted on the TopCount scintillation counter (Packard Instrument Co., Downers Grove, Ill.]. The percent inhibition of Rb phosphorylation, which is a measure of the inhibition of CDK activity, was determined according to the following formula: [formula]
(§4) where “test compound” refers to the average counts per minute of the test duplicates, “nonspecific” refers to the average counts per minute when no CyclinD/Cdk4, etc., was added, and “total” refers to the average counts per minute when no compound was added.

HCT116 = assay: Tetrazolium dye (MTT) proliferation assay; assay type: cell-based; conditions: Homo sapiens, HCT-116; HCT116 colorectal carcinoma cell line
Procedure: The cell line used was HCT116, a colorectal carcinoma cell line obtained from the American Type Cell Culture Collection (ATCC;
Rockville, Md.). The cells were grown in McCoy's 5A medium supplemented with 10% FCS and L-glutamine.
Cells were plated at the appropriate seeding density to give logarithmic growth over the course of the assay in a 96-well tissue culture plate. Plates were incubated overnight at 37° C. in a humidified incubator with 5% CO2. The next day, test compounds were serially diluted to four times the final concentration in the appropriate medium containing 1.2% DMSO. One-fourth final volume of each dilution was added in duplicate to the plates containing cells. The same volume of 1.2% DMSO in medium was added to a row of “control wells” such that the final concentration of DMSO in each well was 0.3%. Wells to which no cells were added served as the “blank.” Wells to which no inhibitor was added served as “no inhibitor control.” The plates were) returned to the incubator, and at set time points (determined by their growth curves) plates were analyzed as described below.
3-(4,5-dimethylthiazole-2-yl)-2,5-diphenyl-2H-tetrazolium bromide (thiazolyl blue; MTT; Sigma) was added to each well to yield a final concentration of 1 mg/ml. Plates were returned to the incubator for 2.5-3 hours at 37° C. The MTT-containing medium was removed and the resulting formazan metabolite was solubilized in 100% ethanol with shaking for 15 minutes at room temperature. Absorbance readings were taken in a microtiter plate reader (Dynatech and Molecular Devices plate readers were used interchangeably) at a wavelength of 570 nm with a 650 nm reference. Percent inhibition (% INH) is calculated by subtracting the absorbance of the blank well from all wells, then subtracting the ratio of the average absorbance of each test duplicate (SAVE) by the average of the controls (CAVE) from 1.00. The final number is then multiplied by 100 (% INH=(1.00−SAVE/CAVE)×100).

human cyclin B-CDK1 = human cyclin B-CDK1 (Homo sapiens, UniProt P06493); assay: FlashPlate kinase assay, cyclin B-CDK1; assay type: biochemical; conditions: Rb protein substrate, 1 μM ATP
human cyclin B-CDK1, sequence (P06493 whole entry): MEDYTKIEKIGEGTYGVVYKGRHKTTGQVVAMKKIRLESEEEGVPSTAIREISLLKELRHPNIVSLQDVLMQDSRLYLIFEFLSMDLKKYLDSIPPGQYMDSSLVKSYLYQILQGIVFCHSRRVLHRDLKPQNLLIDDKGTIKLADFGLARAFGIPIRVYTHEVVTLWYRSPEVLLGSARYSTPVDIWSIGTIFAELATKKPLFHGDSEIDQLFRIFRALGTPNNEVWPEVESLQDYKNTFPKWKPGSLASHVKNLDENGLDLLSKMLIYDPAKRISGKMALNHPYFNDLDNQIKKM
human cyclin B-CDK1, sequence (P14635 whole entry partner): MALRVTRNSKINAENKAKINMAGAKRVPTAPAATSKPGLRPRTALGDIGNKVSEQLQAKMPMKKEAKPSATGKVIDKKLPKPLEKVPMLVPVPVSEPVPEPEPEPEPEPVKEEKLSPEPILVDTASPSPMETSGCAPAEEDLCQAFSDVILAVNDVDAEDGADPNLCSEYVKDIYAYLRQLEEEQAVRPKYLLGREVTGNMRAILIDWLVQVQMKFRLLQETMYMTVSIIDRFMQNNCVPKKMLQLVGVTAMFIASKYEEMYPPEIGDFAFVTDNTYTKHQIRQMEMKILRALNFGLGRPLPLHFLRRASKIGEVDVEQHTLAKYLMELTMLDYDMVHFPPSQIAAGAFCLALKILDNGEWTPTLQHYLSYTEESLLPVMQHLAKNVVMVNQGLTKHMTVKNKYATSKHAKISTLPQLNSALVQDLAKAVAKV
Procedure: as §1, §2, §3, §4

human cyclin E-CDK2 = human cyclin E-CDK2 (Homo sapiens, UniProt P24941); assay: FlashPlate kinase assay, cyclin E-CDK2; assay type: biochemical; conditions: Rb protein substrate, 1 μM ATP
Procedure: as §1, §2, §3, §4

Cdk1, sequence (P06493 whole entry, species assumed): as the sequence (P06493 whole entry) above
Cdk1, sequence (P14635 whole entry partner, species assumed): as the sequence (P14635 whole entry partner) above
Cdk4, sequence (P11802 whole entry, species assumed): as the sequence (P11802 whole entry) above
Cdk4, sequence (P24385 whole entry partner, species assumed): as the sequence (P24385 whole entry partner) above

Compound | cell cycle block (cells) | inhibition of PKC (PKC) | inhibition of Cdk4 (Cdk4) | inhibition of Cdk2 (Cdk2) | inhibition of Cdk1 (Cdk1) | IC50 (human cyclin D1-CDK4) [nM] | IC50 (HCT116) [nM] | IC50 (human cyclin B-CDK1) [nM] | IC50 (human cyclin E-CDK2) [nM]
CN1CC[C@H](c2c(O)cc(O)c3c(=O)cc(-c4ccccc4Cl)oc23)[C@H](O)C1 [Flavopiridol] | blocks cells in both G1 and G2 phases | weaker inhibitor | inhibits | inhibits | inhibits |  |  |  | 
Nc1nc(Nc2ccc(N3CCN(CCO)CC3)cc2)sc1C(=O)c1cccc(F)c1 [Example 51] |  |  |  |  |  | 20 | 900 | 900 | 500
CN1CCN(c2ccc(Nc3nc(N)c(C(=O)c4ccc(Cl)c(Cl)c4)s3)cc2)CC1 [Example 37, [4-Amino-2-[[4-(4-methyl-1-piperazinyl)phenyl]amino]-5-thiazolyl](3,4-dichlorophenyl)methanone] |  |  |  |  |  | 73 | 6600 | 10000 | 6300
CN1CCN(c2ccc(Nc3nc(N)c(C(=O)c4ccc5c(c4)OCO5)s3)cc2F)CC1 [Example 38, [4-Amino-2-[[3-fluoro-4-(4-methyl-1-piperazinyl)phenyl]amino]-5-thiazolyl](1,3-benzodioxol-5-yl)methanone] |  |  |  |  |  | 6 | 1900 | 2000 | 2600
COc1cc(OC)cc(C(=O)c2sc(Nc3ccc(N4CCN(C(C)C)CC4)cc3)nc2N)c1 [Example 44, [4-Amino-2-[[4-[4-(1-methylethyl)-1-piperazinyl]phenyl]amino]-5-thiazolyl](3,5-dimethoxyphenyl)methanone] |  |  |  |  |  | 28 | 3800 | 1800 | 11900
